# Test results as given in patent publication US20250257034A1, “INDOLE DERIVATIVES AS SEROTONERGIC AGENTS USEFUL FOR THE TREATMENT OF DISORDERS RELATED THERETO” (priority 2023, published 2025).
# pIC50: −log10 of the molar value.
# Target: human 5-HT2A receptor (Homo sapiens, UniProt P28223)
# Assay: Human 5-HT2A radioligand binding assay ([3H]-ketanserin)
# Set-up: expressed in transfected cells; host or cells: HTR2A&Gα15-HEK293 (tetracycline induction)
# Conditions: not given
# Method: The objective of this study was to evaluate the binding properties of exemplary compounds of Formula (I) on 5-hydroxytryptamine receptor 2A (5-HT2A).
# 1. The assay buffer was prepared following Table 13 below.
# Adjust pH to 7.4 followed by […] sterile filtration
# 2. 8 doses of reference and test compounds starting from 10 mM stock solution as required was prepared by 5-fold serial dilutions with 100% (v/v) DMSO.
# 3. UniFilter-96 GF/B plate was pretreated: • i. 50 μl/well of 0.5% (v/v) PEI was added to UniFilter-96 […] plates. The plates were sealed and incubated at 4° C. for 3 hrs. • ii. After incubation, the plates were washed 3 times with ice-cold wash buffer (50 mM Tris, pH7.4).
# 4. The assay plate was prepared: • i. Cell membrane was diluted with assay buffer and 330 μl/well was added to 96 round deep well plates to reach a concentration of 20 μg/well. • ii. 8 concentrations of reference or test compounds were prepared and 110 μl/well was added to 96 round deep well plates. • iii. [3H]-ketanserin was diluted with assay buffer to 5 nM (5×final concentration) and 110 μl/well was added to 96 round deep well plates.
# 5. The plate was centrifuged at 1000 rpm for 30 secs and then agitated at 600 rpm, R.T. for 5 min. […]
# 7. The incubation was stopped by vacuum filtration onto GF/B filter plates followed by 4 times washing with ice-cold wash buffer (50 mM Tris, pH7.4).
# 9. The filter plates were sealed and 40 μl/well of scintillation cocktail was added.
# 10. The plate was read by using a Microbeta^2 microplate counter.
# 1. For reference and test compounds, the results were expressed as % Inhibition, using the normalization equation: N=100−100×(U-C2)/(C1-C2), where U is the unknown value, C1 is the average of high controls, and C2 is the average of low controls.
# 2. The IC50 was determined by fitting percentage of inhibition as a function of compound concentrations with Hill equation using XLfit. […]
# human 5-HT2A receptor, sequence (P28223 whole entry): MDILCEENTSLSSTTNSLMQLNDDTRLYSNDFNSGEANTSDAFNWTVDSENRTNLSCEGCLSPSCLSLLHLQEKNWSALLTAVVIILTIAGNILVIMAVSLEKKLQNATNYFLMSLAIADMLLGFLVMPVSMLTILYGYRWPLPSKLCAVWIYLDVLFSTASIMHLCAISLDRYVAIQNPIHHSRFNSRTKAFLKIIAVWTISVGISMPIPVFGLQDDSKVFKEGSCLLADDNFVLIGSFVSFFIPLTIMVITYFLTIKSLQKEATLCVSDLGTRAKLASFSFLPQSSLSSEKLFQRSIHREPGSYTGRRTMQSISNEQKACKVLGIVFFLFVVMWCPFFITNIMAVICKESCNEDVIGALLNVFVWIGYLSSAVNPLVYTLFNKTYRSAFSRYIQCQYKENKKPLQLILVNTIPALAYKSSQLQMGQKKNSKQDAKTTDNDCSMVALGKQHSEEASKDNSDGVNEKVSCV
row,Structure (SMILES),pIC50
1,"COc1ccc2[nH]cc(CCN3CC[C@@H](OC)C3)c2c1 [(R) I-66, (R)-5-methoxy-3-(2-(3-methoxypyrrolidin-1-yl)ethyl)-1H-indole]",5.37
2,"COc1ccc2[nH]cc(CCN3CC[C@@H](OC(F)F)C3)c2c1 [(R) I-67, (R)-3-(2-(3-(Difluoromethoxy)pyrrolidin-1-yl)ethyl)-5-methoxy-1H-indole]",5.39
3,"COc1ccc2[nH]cc(CCN3CC[C@H](OC(F)F)C3)c2c1 [(S) I-67, (S)-3-(2-(3-(Difluoromethoxy)pyrrolidin-1-yl)ethyl)-5-methoxy-1H-indole]",5.31
4,"[2H]C([2H])([2H])N(CCc1c[nH]c2ccc(SC)cc12)C([2H])([2H])[2H] [Compound I-1, N,N-Bis(methyl-d3)-2-(5-(methylthio)-1H-indol-3-yl)ethan-1-amine]",6.41
5,"CCN(CC)CCc1c[nH]c2ccc(SC)cc12 [Compound I-12, N,N-Diethyl-2-(5-(methylthio)-1H-indol-3-yl)ethan-1-amine]",6.11
6,"CCN(C)CCc1c[nH]c2ccc(SC)cc12 [Compound I-13, N-Ethyl-N-methyl-2-(5-(methylthio)-1H-indol-3-yl)ethan-1-amine]",6.60
7,"CSc1ccc2[nH]cc(CCN(C(C)C)C(C)C)c2c1 [Compound I-17, N-Isopropyl-N-(2-(5-(methylthio)-1H-indol-3-yl)ethyl)propan-2-amine]",5.70
8,"CSc1ccc2[nH]cc(CCN(C)C(C)C)c2c1 [Compound I-19, N-Methyl-N-(2-(5-(methylthio)-1H-indol-3-yl)ethyl)propan-2-amine]",6.03
9,"CN(C)CCc1c[nH]c2ccc(OCCOC(F)F)cc12 [Compound I-128, 2-(5-(2-(Difluoromethoxy)ethoxy)-1H-indol-3-yl)-N,N-dimethylethan-1-amine]",5.11

# Same assay, conditions: [3H]-ketanserin displacement (Table 14); read-out: h5-HT2A, IC50
row,Structure (SMILES),pIC50
1,CN(C)CCc1c[nH]c2ccccc12 [DMT],6.02

# Same assay, conditions: [3H]-ketanserin displacement (Table 43); read-out: h5-HT2A, IC50
row,Structure (SMILES),pIC50
1,"COc1ccc2[nH]cc(CCN(C)CCOC(F)F)c2c1 [Compound I-71, 2-(Difluoromethoxy)-N-(2-(5-methoxy-1H-indol-3-yl)ethyl)-N-methylethan-1-amine]",5.64
2,"CN(CCOC(F)F)CCc1c[nH]c2ccccc12 [Compound I-130, N-(2-(1H-Indol-3-yl)ethyl)-2-(difluoromethoxy)-N-methylethan-1-amine]",5.25
3,CN(C)CCc1c[nH]c2ccccc12 [DMT],6.02
